According to ChEMBL document CHEMBL2203039, “Azabenzthiazole inhibitors of leukotriene A₄ hydrolase” (Bioorg Med Chem Lett, 2012):

Legend:
[1] = Clearance in rat at 2 mg/kg, iv; assay type: ADME, organism-based; parameters: dose 2 mg/kg, route intravenous; conditions: in vivo
[2] = Oral bioavailability in rat at 10 mg/kg; assay type: ADME, organism-based; conditions: in vivo
[3] = molecular target: T1, Voltage-gated inwardly rectifying potassium channel KCNH2 (Homo sapiens, UniProt Q12809); experiment: Inhibition of dofetilide binding to human ERG by radioligand binding assay
T1 sequence (Q12809 whole entry): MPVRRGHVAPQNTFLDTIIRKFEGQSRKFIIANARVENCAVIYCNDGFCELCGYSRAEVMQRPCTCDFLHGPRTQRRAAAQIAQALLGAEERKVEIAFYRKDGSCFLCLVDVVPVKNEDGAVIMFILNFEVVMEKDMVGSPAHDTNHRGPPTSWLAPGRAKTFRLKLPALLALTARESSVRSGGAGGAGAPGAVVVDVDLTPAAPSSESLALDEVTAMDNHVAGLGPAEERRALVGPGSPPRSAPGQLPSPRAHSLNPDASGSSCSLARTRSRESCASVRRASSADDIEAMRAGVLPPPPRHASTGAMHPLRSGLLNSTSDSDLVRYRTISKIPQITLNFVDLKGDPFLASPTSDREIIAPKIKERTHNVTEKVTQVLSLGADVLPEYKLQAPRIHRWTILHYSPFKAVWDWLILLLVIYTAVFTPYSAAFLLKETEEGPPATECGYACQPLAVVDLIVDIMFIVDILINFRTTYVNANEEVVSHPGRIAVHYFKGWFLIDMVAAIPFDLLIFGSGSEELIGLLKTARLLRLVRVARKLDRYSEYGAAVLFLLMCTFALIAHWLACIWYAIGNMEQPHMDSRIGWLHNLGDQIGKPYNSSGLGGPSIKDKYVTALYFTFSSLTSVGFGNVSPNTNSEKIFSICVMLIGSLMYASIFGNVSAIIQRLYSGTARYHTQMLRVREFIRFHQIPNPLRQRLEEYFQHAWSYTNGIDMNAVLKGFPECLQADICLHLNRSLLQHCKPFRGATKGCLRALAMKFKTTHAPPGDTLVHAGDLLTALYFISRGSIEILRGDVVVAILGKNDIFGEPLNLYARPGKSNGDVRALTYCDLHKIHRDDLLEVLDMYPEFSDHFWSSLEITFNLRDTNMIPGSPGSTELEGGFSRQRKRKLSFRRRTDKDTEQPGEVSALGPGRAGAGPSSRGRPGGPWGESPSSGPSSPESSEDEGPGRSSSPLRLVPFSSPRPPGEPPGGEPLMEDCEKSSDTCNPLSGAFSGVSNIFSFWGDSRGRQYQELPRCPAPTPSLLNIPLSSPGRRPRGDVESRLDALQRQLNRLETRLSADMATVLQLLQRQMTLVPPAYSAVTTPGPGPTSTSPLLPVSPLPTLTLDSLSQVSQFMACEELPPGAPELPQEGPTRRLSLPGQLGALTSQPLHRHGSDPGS

Mus musculus [4] = species on record: Mus musculus; experiment: animal or person; assay type: functional; conditions: Balb/c, 3 h, route oral
[5] = Cmax in rat at 10 mg/kg, po; assay type: ADME, organism-based; parameters: dose 10 mg/kg, route oral; conditions: in vivo
Mus musculus [6] = species on record: Mus musculus; experiment: animal or person; assay type: functional, organism-based; conditions: Balb/c, Blood
[7] = molecular target: T2, Leukotriene A-4 hydrolase (Homo sapiens, UniProt P09960); experiment: Inhibition of human recombinant LTA4 hydrolase expressed in SF9 cells using LTA4 as substrate assessed as LTB4 production incubated for 10 mins prior to substrate addition measured after 10 to 30 mins by enzyme immunoassay; assay type: cell-based
T2 sequence (P09960 whole entry): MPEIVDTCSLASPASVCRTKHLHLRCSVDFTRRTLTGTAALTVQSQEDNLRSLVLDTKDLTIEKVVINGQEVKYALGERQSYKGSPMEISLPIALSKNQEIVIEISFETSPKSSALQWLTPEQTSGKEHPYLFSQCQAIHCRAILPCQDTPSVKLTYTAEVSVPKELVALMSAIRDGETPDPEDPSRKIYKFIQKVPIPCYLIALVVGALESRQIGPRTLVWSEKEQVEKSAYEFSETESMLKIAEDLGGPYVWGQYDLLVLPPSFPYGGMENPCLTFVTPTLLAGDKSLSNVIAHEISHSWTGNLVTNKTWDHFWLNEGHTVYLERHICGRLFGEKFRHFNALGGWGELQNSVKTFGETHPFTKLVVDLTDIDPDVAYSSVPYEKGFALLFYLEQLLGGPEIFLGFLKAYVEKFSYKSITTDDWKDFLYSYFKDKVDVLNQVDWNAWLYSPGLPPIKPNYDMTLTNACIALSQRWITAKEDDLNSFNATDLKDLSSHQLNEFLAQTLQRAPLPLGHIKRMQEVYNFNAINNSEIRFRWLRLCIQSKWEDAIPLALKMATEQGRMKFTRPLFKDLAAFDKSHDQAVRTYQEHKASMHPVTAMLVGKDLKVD

Mus musculus [8] = species on record: Mus musculus; experiment: animal or person; assay type: functional; conditions: Balb/c, Blood, 3 h, route oral
[9] = Volume of distribution at steady state in rat at 2 mg/kg, iv; assay type: ADME, organism-based; parameters: dose 2 mg/kg, route intravenous; conditions: in vivo, read-out: Vdss
[10] = Half life in rat at 2 mg/kg, iv; assay type: ADME, organism-based; parameters: dose 2 mg/kg, route intravenous; conditions: in vivo
[11] = molecular target: T1, Voltage-gated inwardly rectifying potassium channel KCNH2; experiment: Inhibition of human ERG by patch clamp assay

Row | Structure (SMILES) | clearance [1] | bioavailability [2] | IC50 [3] | inhibition in vivo at 30 mg/kg (Mus musculus [4]) | Cmax [5] | IC50 (Mus musculus [6]) | IC50 [7] | inhibition in vivo at 30 mg/kg (Mus musculus [8]) | Vd [9] | half-life [10] | IC50 [11]
1 | CC(=O)N1CC2CC1CN2Cc1ccc(Oc2nc3ncccc3s2)cc1 (centres undefined) | 7 mL/min/kg | 125% | > 10000 nM | 88% | 3300 nM | 7 nM | 5 nM | 92% | 1.4 L/kg | 3.3 h | > 10000 nM
2 | c1cnc2nc(Oc3ccc(CN4CCCCC4)cc3)sc2c1 | – | – | > 10000 nM | 48% | – | 14 nM | 3 nM | 67% | – | – | –
3 | c1cc2nc(Oc3ccc(CN4CCCCC4)cc3)sc2cn1 | – | – | – | – | – | 723 nM | 614 nM | – | – | – | –
4 | c1cc2sc(Oc3ccc(CN4CCCCC4)cc3)nc2cn1 | – | – | – | – | – | – | 1800 nM | – | – | – | –
5 | CC(=O)N1CC2CC1CN2CCc1ccc(Oc2nc3ncccc3s2)cc1 (centres undefined) | – | – | – | 68% | – | 30 nM | 14 nM | 90% | – | – | –
6 | O=C1CCCN1C1CCN(Cc2ccc(Oc3nc4ncccc4s3)cc2)CC1 | – | – | > 10000 nM | 88% | – | 27 nM | 6 nM | 81% | – | – | > 10000 nM
7 | O=C1CCCN1C1CCN(CCOc2ccc(Oc3nc4ncccc4s3)cc2)CC1 | – | – | > 10000 nM | 76% | – | 20 nM | 6 nM | 89% | – | – | 2500 nM
8 | NC(=O)C1CCN(CCc2ccc(Oc3nc4ncccc4s3)cc2)CC1 | – | – | > 10000 nM | 60% | – | 50 nM | 11 nM | 76% | – | – | –
9 | O=C1CCCN1C1CCN(CCc2ccc(Oc3nc4ncccc4s3)cc2)CC1 | – | – | – | 75% | – | 65 nM | 14 nM | 86% | – | – | 2800 nM
10 | NC(=O)C1CCN(Cc2ccc(Oc3nc4ncccc4s3)cc2)CC1 | – | – | 8900 nM | 89% | – | 37 nM | 6 nM | 85% | – | – | > 10000 nM
11 | CC(=O)NC1CC2CCC(C1)N2CCOc1ccc(Oc2nc3ncccc3s2)cc1 (centres undefined) | – | – | – | 74% | – | 24 nM | 4 nM | 85% | – | – | –
12 | c1cnc2nc(Oc3ccc(CCN4CCCCC4)cc3)sc2c1 | – | – | > 10000 nM | 36% | – | 24 nM | – | 70% | – | – | –
13 | CC(=O)NC1CC2CCC(C1)N2CCc1ccc(Oc2nc3ncccc3s2)cc1 (centres undefined) | – | – | – | 78% | – | – | 0.3 nM | 85% | – | – | –
14 | CC(=O)N1CC2CN(CCOc3ccc(Oc4nc5ncccc5s4)cc3)CC2C1 (centres undefined) | – | – | > 10000 nM | 86% | – | 30 nM | 7 nM | 81% | – | – | –
15 | NC(=O)C1CCN(Cc2ccc(Oc3nc4cccnc4s3)cc2)CC1 | – | – | – | – | – | 2040 nM | 733 nM | – | – | – | –
16 | CC(=O)N1CC2CC1CN2CCOc1ccc(Oc2nc3ncccc3s2)cc1 (centres undefined) | – | – | – | 72% | – | 18 nM | 7 nM | 84% | – | – | –
17 | CC(=O)NC1CC2CCC(C1)N2Cc1ccc(Oc2nc3ncccc3s2)cc1 (centres undefined) | 20 mL/min/kg | 65% | – | 70% | 1200 nM | 20 nM | 1 nM | 81% | 3.5 L/kg | 2 h | –
18 | c1cnc2nc(Oc3ccc(OCCN4CCCCC4)cc3)sc2c1 | – | – | – | 62% | – | 18 nM | 8 nM | 65% | – | – | –
19 | NC(=O)C1CCN(CCOc2ccc(Oc3nc4ncccc4s3)cc2)CC1 | – | – | > 10000 nM | 71% | – | 30 nM | 16 nM | 80% | – | – | –
20 | CC(=O)N1CC2CN(Cc3ccc(Oc4nc5ncccc5s4)cc3)CC2C1 (centres undefined) | – | – | – | 95% | – | 10 nM | – | 57% | – | – | –
21 | CC(=O)N1CC2CN(CCc3ccc(Oc4nc5ncccc5s4)cc3)CC2C1 (centres undefined) | – | – | > 10000 nM | 79% | – | 22 nM | 6 nM | 86% | – | – | –
22 | Cc1ccnc2nc(Oc3ccc(CN4CCCCC4)cc3)sc12 | – | – | – | 42% | – | 82 nM | – | 12% | – | – | –
23 | Clc1cnc2nc(Oc3ccc(CN4CCCCC4)cc3)sc2c1 | – | – | > 10000 nM | – | – | 245 nM | – | – | – | – | –
